Results published in ChEMBL document CHEMBL4152332, “Discovery and synthesis of novel magnolol derivatives with potent anticancer activity in non-small cell lung cancer” (Eur J Med Chem, 2018).

What was measured:
Mus musculus [1] = assay: Toxicity in Balb/c mouse implanted with mouse C26 cells assessed as change in body weight at 100 mg/kg, po qd treated for 10 days and measured every 2 days (RVB = 16.4%); type: organism-based; settings: in vivo
NCI-H1975 [2] = assay: Antiproliferative activity against human NCI-H1975 cells after 72 hrs by MTT assay; type: functional, cell-based; settings: NCI-H1975, 72 h
NCI-H460 [3] = assay: Antiproliferative activity against human H460 cells after 72 hrs by MTT assay; type: functional, cell-based; settings: NCI-H460, 72 h
A549 = assay: Antiproliferative activity against human A549 cells after 72 hrs by MTT assay; type: functional, cell-based; settings: A549, 72 h
[4] = Antiproliferative activity against human SPC-A1 cells after 72 hrs by MTT assay; type: functional, cell-based; settings: SPCA1, 72 h
NCI-H1650 = assay: Antiproliferative activity against human NCI-H1650 cells after 72 hrs by MTT assay; type: functional, cell-based; settings: NCI-H1650, 72 h
PC-9 = assay: Antiproliferative activity against human PC9 cells after 72 hrs by MTT assay; type: functional, cell-based; settings: PC-9, 72 h
NCI-H1975 [5] = assay: Cell cycle arrest in human NCI-H1975 cells assessed as increase in accumulation at G0/G1 phase after 24 hrs by propidium iodide staining-based flow cytometric analysis; type: functional
NCI-H1975 [6] = assay: Cell cycle arrest in human NCI-H1975 cells assessed as accumulation at G0/G1 phase at 5 uM after 24 hrs by propidium iodide staining-based flow cytometric analysis (reference value: 56.11%); type: functional
NCI-H1975 [7] = assay: Cell cycle arrest in human NCI-H1975 cells assessed as accumulation at S phase at 5 uM after 24 hrs by propidium iodide staining-based flow cytometric analysis (reference value: 22.93%); type: functional
NCI-H1975 [8] = assay: Cell cycle arrest in human NCI-H1975 cells assessed as accumulation at G2/M phase at 5 uM after 24 hrs by propidium iodide staining-based flow cytometric analysis (reference value: 20.11%); type: functional
NCI-H1975 [9] = assay: Cell cycle arrest in human NCI-H1975 cells assessed as accumulation at S phase at 10 uM after 24 hrs by propidium iodide staining-based flow cytometric analysis (reference value: 22.93%); type: functional
NCI-H1975 [10] = assay: Cell cycle arrest in human NCI-H1975 cells assessed as accumulation at S phase at 20 uM after 24 hrs by propidium iodide staining-based flow cytometric analysis (reference value: 22.93%); type: functional
NCI-H1975 [11] = assay: Cell cycle arrest in human NCI-H1975 cells assessed as accumulation at G2/M phase at 20 uM after 24 hrs by propidium iodide staining-based flow cytometric analysis (reference value: 20.11%); type: functional
NCI-H1975 [12] = assay: Induction of apoptosis in human NCI-H1975 cells after 48 hrs by annexin V/FITC-propidium iodide staining-based flow cytometric method; type: functional, cell-based
NCI-H1975 [13] = assay: Induction of apoptosis in human NCI-H1975 cells assessed as necrotic cells at 10 uM after 48 hrs by annexin V/FITC-propidium iodide staining-based flow cytometric method ( Rvb = 1.01%); type: functional
NCI-H1975 [14] = assay: Induction of apoptosis in human NCI-H1975 cells assessed as viable cells at 10 uM after 48 hrs by annexin V/FITC-propidium iodide staining-based flow cytometric method ( Rvb = 82.5%); type: functional; settings: NCI-H1975, 48 h, read-out: Activity
NCI-H1975 [15] = assay: Induction of apoptosis in human NCI-H1975 cells assessed as viable cells at 20 uM after 48 hrs by annexin V/FITC-propidium iodide staining-based flow cytometric method ( Rvb = 82.5%); type: functional; settings: NCI-H1975, 48 h, read-out: Activity
HUVEC = assay: Antimigratory activity against HUVEC after 24 to 48 hrs by phase contrast/fluorescence microscopic analysis; type: functional, cell-based; settings: Homo sapiens
[16] = Antitumor activity against mouse C26 cells implanted in Balb/c mouse assessed as tumor growth inhibition at 100 mg/kg, po qd and measured every 2 days relative to control; type: functional; settings: 48 h, read-out: TGI
Mus musculus [17] = assay: Toxicity in Balb/c mouse xenografted with human NCI-H1975 cells assessed as mouse death at 10 to 100 mg/kg, po qd treated for 18 days and measured every 2 days after compound dosing; type: organism-based; settings: in vivo
Mus musculus [18] = assay: Toxicity in Balb/c mouse xenografted with human NCI-H1975 cells assessed as mouse death at 5 to 20 mg/kg, iv treated every 2 days for 9 days and measured every 2 days after compound dosing; type: organism-based; settings: in vivo
NCI-H1975 [19] = assay: Antitumor activity against human NCI-H1975 cells xenografted in Balb/c mouse assessed as change in tumor mass at 100 mg/kg, po qd treated for 18 days and measured every 2 days after compound dosing relative to control; type: functional
NCI-H1975 [20] = assay: Antitumor activity against human NCI-H1975 cells xenografted in Balb/c mouse assessed as change in tumor mass at 10 mg/kg, iv treated every 2 days for 9 days and measured every 2 days after compound dosing relative to control; type: functional
NCI-H1975 [21] = assay: Antitumor activity against human NCI-H1975 cells xenografted in Balb/c mouse assessed as change in tumor mass at 20 mg/kg, iv treated every 2 days for 9 days and measured every 2 days after compound dosing relative to control; type: functional
NCI-H1975 [22] = assay: Induction of apoptosis in human NCI-H1975 cells assessed as decrease in Cdk4 level after 24 hrs by Western blot analysis; type: functional, cell-based
NCI-H1975 [23] = assay: Induction of apoptosis in human NCI-H1975 cells assessed as increase in cleaved PARP level after 48 hrs by Western blot analysis; type: functional, cell-based
Mus musculus [24] = assay: Toxicity in Balb/c mouse implanted with mouse C26 cells assessed as mouse death at 100 mg/kg, po qd treated for 10 days; type: organism-based; settings: in vivo, 240 h
Mus musculus [25] = assay: Toxicity in Balb/c mouse xenografted with human NCI-H1975 cells assessed as effect on liver size at 5 to 20 mg/kg, iv treated every 2 days for 9 days; type: organism-based; settings: in vivo
Mus musculus [26] = assay: Toxicity in Balb/c mouse xenografted with human NCI-H1975 cells assessed as effect on liver morphology at 5 to 20 mg/kg, iv treated every 2 days for 9 days; type: organism-based; settings: in vivo
Mus musculus [27] = assay: Toxicity in Balb/c mouse xenografted with human NCI-H1975 cells assessed as effect on kidney morphology at 5 to 20 mg/kg, iv treated every 2 days for 9 days; type: organism-based; settings: in vivo
Mus musculus [28] = assay: Toxicity in Balb/c mouse xenografted with human NCI-H1975 cells assessed as effect on lung size at 5 to 20 mg/kg, iv treated every 2 days for 9 days; type: organism-based; settings: in vivo
Mus musculus [29] = assay: Toxicity in Balb/c mouse xenografted with human NCI-H1975 cells assessed as effect on lung morphology at 5 to 20 mg/kg, iv treated every 2 days for 9 days; type: organism-based; settings: in vivo
HCC827 [30] = assay: Potency index, ratio of IC50 for honokiol to IC50 for test compound for antiproliferative activity against human HCC827 cells after 72 hrs by MTT assay; type: functional
NCI-H1975 [31] = assay: Potency index, ratio of IC50 for honokiol to IC50 for test compound for antiproliferative activity against human NCI-H1975 cells after 72 hrs by MTT assay; type: functional
HCC827 [32] = assay: Potency index, ratio of IC50 for magnolol to IC50 for test compound for antiproliferative activity against human HCC827 cells after 72 hrs by MTT assay; type: functional
NCI-H460 [33] = assay: Potency index, ratio of IC50 for magnolol to IC50 for test compound for antiproliferative activity against human H460 cells after 72 hrs by MTT assay; type: functional

SMILES: C=CCc1ccc(O)c(-c2cc(CC=C)cc(CN3CCC(N)CC3)c2O)c1
- Activity (Mus musculus [1]): -9.3%
- IC50 (NCI-H1975 [2]): 5.61 µM
- IC50 (NCI-H460 [3]): 5.98 µM
- IC50 (A549): 5.48 µM
- IC50 [4]: 7.89 µM
- IC50 (NCI-H1650): 4.81 µM
- IC50 (PC-9): 12.5 µM
- Activity (NCI-H1975 [5]): Dose-dependent effect
- Activity (NCI-H1975 [6]): 62.26%
- Activity (NCI-H1975 [7]): 22.39%
- Activity (NCI-H1975 [8]): 13.41%
- Activity (NCI-H1975 [9]): 18.57%
- Activity (NCI-H1975 [10]): 12.63%
- Activity (NCI-H1975 [11]): 6.13%
- Activity (NCI-H1975 [12]): Dose-dependent effect
- Activity (NCI-H1975 [13]): 0.4%
- viability at 10 µM (NCI-H1975 [14]): 56.7%
- viability at 20 µM (NCI-H1975 [15]): 3.75%
- Activity (HUVEC): Dose-dependent effect
- inhibition in vivo at 100 mg/kg [16]: 47.9%
- Activity (Mus musculus [17]): Non-Toxic
- Activity (Mus musculus [18]): Non-Toxic
- Activity (NCI-H1975 [19]): 61.2%
- Activity (NCI-H1975 [20]): 57.5%
- Activity (NCI-H1975 [21]): 65.8%
- Activity (NCI-H1975 [22]): Dose-dependent effect
- Activity (NCI-H1975 [23]): Dose-dependent effect
- Activity (Mus musculus [24]): Non-Toxic
- Activity (Mus musculus [25]): Non-Toxic
- Activity (Mus musculus [26]): Non-Toxic
- Activity (Mus musculus [27]): Non-Toxic
- Activity (Mus musculus [28]): Non-Toxic
- Activity (Mus musculus [29]): Non-Toxic
- Ratio IC50 (HCC827 [30]): 4
- Ratio IC50 (NCI-H1975 [31]): 4
- Ratio IC50 (HCC827 [32]): 8
- Ratio IC50 (NCI-H460 [33]): 8
